Data taken from US9890138B2, “Diaminopyrimidine derivatives and processes for the preparation thereof” (YUHAN CORPORATION, priority 2011, dated 2018).
Where a name gives a salt, the structure may show the parent alone.

target: T1, human 5-HT4(a) (Homo sapiens, UniProt Q13639); assay: Evaluation of agonistic activity in CHO-K1 cells expressing human 5-HT4(a) (GeneBlAzer HTR4-CRE-bla CHO-K1, beta-lactamase reporter); format: cell-based; conditions: CHO-K1 cells stably expressing human 5-HT4(a)
T1 construct: host or cells: GeneBlAzer HTR4-CRE-bla CHO-K1 cells
Summary of the method: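 Agonism read as CRE-driven β-lactamase activity: emission ratio 465/535 nm (excitation 410 nm) after 2 h substrate loading. Preceded by 5 h compound treatment, 8 concentrations, 1% DMSO in the added solution, of overnight-plated reporter CHO-K1 cells; EC50 by non-linear regression.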

T1 sequence (Q13639 1-387 isoform Q13639-2): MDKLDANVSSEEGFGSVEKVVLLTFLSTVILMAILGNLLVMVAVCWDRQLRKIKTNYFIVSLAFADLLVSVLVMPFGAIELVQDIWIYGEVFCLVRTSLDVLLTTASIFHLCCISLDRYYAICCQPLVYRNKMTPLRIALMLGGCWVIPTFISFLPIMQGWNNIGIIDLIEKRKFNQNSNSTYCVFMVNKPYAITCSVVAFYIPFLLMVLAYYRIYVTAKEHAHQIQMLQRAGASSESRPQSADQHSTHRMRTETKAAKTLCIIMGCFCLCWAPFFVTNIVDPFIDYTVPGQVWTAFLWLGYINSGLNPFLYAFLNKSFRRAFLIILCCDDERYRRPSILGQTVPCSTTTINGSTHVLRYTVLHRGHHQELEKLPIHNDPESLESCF

EC50	Compound
0.078 nM	CCCc1cc(N2CC[C@H](NC(C)=O)C2)nc(Nc2ccc(C)c(OC)c2)n1 [Example 279]
0.149 nM	CCCc1cc(N2CC[C@H](NC3CCNCC3)C2)nc(Nc2cccc(C#N)c2)n1 [Example 221, (S)-3-{4-[3-(piperidin-4-ylamino)pyrrolidin-1-yl]-6-propylpyrimidin-2-ylamino}benzonitrile]
0.041 nM	CCCc1cc(N2CC[C@H](NCCc3ccccc3)C2)nc(Nc2cccc(C#N)c2)n1 [Example 88, (S)-3-{4-[3-(phenethylamino)pyrrolidin-1-yl]-6-propylpyrimidin-2-ylamino}benzonitrile]
0.039 nM	CCCc1cc(N2CC[C@H](NC(CC)CC)C2)nc(Nc2cccc(C#N)c2)n1 [Example 128, (S)-3-{4-[3-(pentan-3-ylamino)pyrrolidin-1-yl]-6-propylpyrimidin-2-ylamino}benzonitrile]
0.028 nM	CCCc1cc(N2CC[C@H](NC(C)=O)C2)nc(Nc2cccc(C(F)(F)F)c2)n1 [Example 244]
0.0035 nM	CCCCN[C@H]1CCN(c2cc(CCC)nc(Nc3cccc(C#N)c3)n2)C1 [Example 116, (S)-3-{4-[3-(butylamino)pyrrolidin-1-yl]-6-propylpyrimidin-2-ylamino}benzonitrile]
0.0013 nM	CCCCc1cc(N2CC[C@H](NCC3CC3)C2)nc(Nc2cccc(C#N)c2)n1 [Example 237]
0.062 nM	CCCc1cc(N2CC[C@H](NC(C)=O)C2)nc(Nc2ccc(OC)c(N)c2)n1 [Example 289]
0.103 nM	CCCc1cc(N2CC[C@H](NC(=O)CCCNC(=O)OC(C)(C)C)C2)nc(Nc2cccc(C#N)c2)n1 [Example 166]
0.024 nM	CCCc1cc(N2CC[C@H](NC(C)=O)C2)nc(Nc2ccc(C)c(N)c2)n1 [Example 493, (S)-N-{1-[2-(3-amino-4-methylphenylamino)-6-propylpyrimidin-4-yl]pyrrolidin-3-yl}acetamide hydrochloride]
0.048 nM	CCCc1cc(N2CC[C@H](NCc3ccccc3)C2)nc(Nc2cccc(C#N)c2)n1 [Example 87, (S)-3-{4-[3-(benzylamino)pyrrolidin-1-yl]-6-propylpyrimidin-2-ylamino}benzonitrile]
0.204 nM	CCCc1cc(N2CC[C@H](NC(C)=O)C2)nc(Nc2ccc(N)cc2)n1 [Example 270]
0.33 nM	CCCc1cc(N2CC[C@H](NC)C2)nc(Nc2ccc(F)cc2)n1 [Example 22, (S)-N-(4-fluorophenyl)-4-[3-(methylamino)pyrrolidin-1-yl]-6-propylpyrimidin-2-amine]
0.47 nM	CCCc1cc(N2CCC[C@H]2CO)nc(Nc2cc(Cl)ccc2C)n1 [Example 204]
0.0019 nM	CCCCc1cc(N2CC[C@H](NCC)C2)nc(Nc2ccc(C)c(C#N)c2)n1 [Example 460]
0.0097 nM	CCCc1cc(N2CCC[C@H]2COC)nc(Nc2ccc(N)c([N+](=O)[O-])c2)n1 [Example 46, (S)-N^1-{4-[2-(methoxymethyl)pyrrolidin-1-yl]-6-propylpyrimidin-2-yl}-3-nitrobenzene-1,4-diamine]
0.18 nM	CCCc1cc(N2CCC[C@H]2C)nc(Nc2ccc3c(c2)N(C(C)=O)CC3)n1 [Example 329]
0.048 nM	CCCc1cc(N2CC[C@H](NC(=O)CC(F)(F)F)C2)nc(Nc2cccc(C#N)c2)n1 [Example 82, (S)-N-{1-[2-(3-cyanophenylamino)-6-propylpyrimidin-4-yl]pyrrolidin-3-yl}-3,3,3-trifluoropropanamide]
0.012 nM	CCCc1cc(N2CC[C@H](N)C2)nc(Nc2cccc([N+](=O)[O-])c2)n1 [Example 350, (S)-4-(3-aminopyrrolidin-1-yl)-N-(3-nitrophenyl)-6-propylpyrimidin-2-amine dihydrochloride]

EC50	Compound
0.0055 nM	CCCc1cc(N2CC[C@H](N)C2)nc(Nc2cc(N)cc(C(F)(F)F)c2)n1 [Example 342]
0.119 nM	CCCc1cc(N2CC[C@H](NC(=O)CCN(C)C)C2)nc(Nc2cccc(C#N)c2)n1 [Example 161]
0.0027 nM	CCCc1cc(N2CC[C@H](NCC3CC3)C2)nc(Nc2ccc(C)c([N+](=O)[O-])c2)n1 [Example 374, (S)-4-[3-(cyclopropylmethylamino)pyrrolidin-1-yl]-N-(4-methyl-3-nitrophenyl)-6-propylpyrimidin-2-amine]
0.35 nM	CCCc1cc(N2CC[C@H](NC(C)=O)C2)nc(Nc2ccc(F)cc2)n1 [Example 17, (S)-N-{1-[2-(4-fluorophenylamino)-6-propylpyrimidin-4-yl]pyrrolidin-3-yl}acetamide]
0.033 nM	CCCc1cc(N2CCC[C@H]2CO)nc(Nc2ccc(F)c(N)c2)n1 [Example 400]
0.047 nM	CCCc1cc(N2CC[C@H](N)C2)nc(Nc2cccc(C#N)c2)n1 [Example 60, (S)-3-[4-(3-aminopyrrolidin-1-yl)-6-propylpyrimidin-2-ylamino]benzonitrile dihydrochloride]
0.076 nM	CCCc1cc(N2CCC(NC(C)=O)C2)nc(Nc2cccc(C#N)c2)n1 (stereo not drawn) [Example 294, N-{1-[2-(3-cyanophenylamino)-6-propylpyrimidin-4-yl]pyrrolidin-3-yl}acetamide]
0.05 nM	CCCc1cc(N2CCCC2C)nc(Nc2ccc3cc[nH]c3c2)n1 (stereo not drawn) [Example 190]
0.0021 nM	CCCc1cc(N2CC[C@H](N)C2)nc(Nc2ccc(N)c([N+](=O)[O-])c2)n1 [Example 359]
0.0034 nM	CCCCc1cc(N2CC[C@H](NCC)C2)nc(Nc2cccc(C#N)c2)n1 [Example 459]
0.087 nM	CCCc1cc(N2CC[C@H](NC(C)=O)C2)nc(Nc2ccc(C)c(O)c2)n1 [Example 274]
0.0096 nM	CCCc1cc(N2CC[C@H](NC(=O)CO)C2)nc(Nc2ccc(F)c(C(F)(F)F)c2)n1 [Example 477]
0.003 nM	CCCN[C@H]1CCN(c2cc(CCC)nc(Nc3cccc(C#N)c3)n2)C1 [Example 85, (S)-3-{4-propyl-6-[3-(propylamino)pyrrolidin-1-yl]pyrimidin-2-ylamino}benzonitrile]
0.12 nM	CCCc1cc(N2CCC(NC(C)=O)C2)nc(Nc2cc(Cl)ccc2C)n1 (stereo not drawn) [Example 303]
0.046 nM	CCCc1cc(N2CC[C@H](NCc3ccc(OC)cc3)C2)nc(Nc2cccc(C#N)c2)n1 [Example 97, (S)-3-{4-[3-(4-methoxybenzylamino)pyrrolidin-1-yl]-6-propylpyrimidin-2-ylamino}benzonitrile]
0.027 nM	CCCc1cc(N2CCC[C@H]2COC)nc(Nc2ccc(F)c(N)c2)n1 [Example 365]
0.0021 nM	CCCc1cc(N2CC[C@H](NC)C2)nc(Nc2cc(N)cc(C(F)(F)F)c2)n1 [Example 487]
0.094 nM	CCCc1cc(N2CC[C@H](NCc3ccc(F)cc3)C2)nc(Nc2cccc(C#N)c2)n1 [Example 98, (S)-3-{4-[3-(4-fluorobenzylamino)pyrrolidin-1-yl]-6-propylpyrimidin-2-ylamino}benzonitrile]
0.012 nM	CCCc1cc(N2CC[C@H](NC(C)=O)C2)nc(Nc2ccc(Cl)c([N+](=O)[O-])c2)n1 [Example 241, (S)—N-{1-[2-(4-chloro-3-nitrophenylamino)-6-propylpyrimidin-4-yl]pyrrolidin-3-yl}acetamide]

EC50	Compound
0.012 nM	CCCc1cc(N2CC[C@H](NC)C2)nc(Nc2cccc(C#N)c2)n1 [Example 50, (S)-3-{4-[3-(methylamino)pyrrolidin-1-yl]-6-propylpyrimidin-2-ylamino}benzonitrile]
0.193 nM	CCCc1cc(N2CC[C@H](NC(=O)CCCN(C)C)C2)nc(Nc2cccc(C#N)c2)n1 [Example 162]
0.122 nM	CCCc1cc(N2CCC[C@H]2COC)nc(Nc2cccc(N)c2)n1 [Example 364]
0.053 nM	CCCc1cc(N2CC[C@H](NC(C)=O)C2)nc(Nc2ccc3c(C)cc(=O)oc3c2)n1 [Example 245]
0.0048 nM	CCCc1cc(N2CC[C@H](NC)C2)nc(Nc2ccc(F)c(C(F)(F)F)c2)n1 [Example 490]
0.0027 nM	CCCc1cc(N2CC[C@H](N)C2)nc(Nc2ccc(N)c(C(F)(F)F)c2)n1 [Example 352]
0.077 nM	CCCc1cc(N2CC[C@H](NCC3CC3)C2)nc(Nc2cccc(N)c2)n1 [Example 384]
0.02 nM	CCCc1cc(N2CCC(NC(C)=O)C2)nc(Nc2ccc3cc[nH]c3c2)n1 (stereo not drawn) [Example 192]
0.0077 nM	CCCCc1cc(N2CC[C@H](NC(C)=O)C2)nc(Nc2ccc(N)c(C#N)c2)n1 [Example 446]
0.078 nM	CCCc1cc(N2CCC[C@H]2C)nc(Nc2ccc(Cl)c([N+](=O)[O-])c2)n1 [Example 313, (R)—N-(4-chloro-3-nitrophenyl)-4-(2-methylpyrrolidin-1-yl)-6-propylpyrimidin-2-amine]
0.0098 nM	CCCCc1cc(N2CC[C@H](NC(C)=O)C2)nc(Nc2ccc(Cl)c(N)c2)n1 [Example 445]
0.027 nM	CCCc1cc(N2CC[C@H](NC(=O)Cc3cccs3)C2)nc(Nc2ccc(C)c(C#N)c2)n1 [Example 430]
0.0033 nM	CCCCc1cc(N2CC[C@H](NC)C2)nc(Nc2cc(N)cc(C(F)(F)F)c2)n1 [Example 452]
0.016 nM	CCCc1cc(N2CCC[C@H]2CO)nc(Nc2ccc(C)c([N+](=O)[O-])c2)n1 [Example 210, (S)-{1-[2-(4-methyl-3-nitrophenylamino)-6-propylpyrimidin-4-yl]pyrrolidin-2-yl}methanol]
0.076 nM	CCCc1cc(N2CCC(NC(C)=O)C2)nc(Nc2ccc3c(C)cc(=O)oc3c2)n1 (stereo not drawn) [Example 309]
0.02 nM	CCCCc1cc(N2CC[C@H](NC(C)=O)C2)nc(Nc2ccc(F)c([N+](=O)[O-])c2)n1 [Example 437]
0.085 nM	CCCc1cc(N2CCC[C@H]2C)nc(Nc2ccc(F)c(C#N)c2)n1 [Example 325]
0.031 nM	CCCCCCN[C@H]1CCN(c2cc(CCC)nc(Nc3cccc(C#N)c3)n2)C1 [Example 84, (S)-3-{4-[3-(hexylamino)pyrrolidin-1-yl]-6-propylpyrimidin-2-ylamino}benzonitrile]

Compound	EC50
(S)-2-{1-[2-(indolin-6-ylamino)-6-propylpyrimidin-4-yl]pyrrolidin-2-yl}methanol [Example 217]	0.23 nM
